Laboratory results taken from patent EP4685143A1 (Vivozon,Inc., priority 2023, dated 2024).

Tests used:
Human mGluR5 = target: T1, Human mGluR5 (Homo sapiens, UniProt P41594); assay: Fluorescence-based Ca2+ mobilization assay; details: HEK293 cell line permanently overexpressing mGluR5, Ca2+ level change induced by L-glutamate at EC80 concentration, FLIPR Tetra
T1 construct: expressed in transfected cells; host or cells: HEK293
Protocol: Experimental Example 2: Fluorescence-based Ca^2+ mobilization assay
In order to measure the activity of the antagonist on the mGluR5, an experiment was carried out to check the change in the intracellular Ca^2+ level using the HEK293 cell line permanently overexpressing the mGluR5. The cells in the cell culture medium were aliquoted into a 384-well plate coated with poly-D-lysine and cultured in a 37°C incubator supplied with 5% CO2. The next day, the medium was removed and a dye loading buffer-in which a reagent capable of measuring Ca^2+ was dissolved-was added, and then incubated at 37°C for 60 minutes. The test compounds were dissolved in 100% DMSO at a final concentration of 10 mM to make a stock solution. The starting concentration of 10 µM was prepared from the stock solution, followed by serial dilutions to prepare working solutions (test compound working solutions). The test compound working solutions were added to the cells that were incubated in the dye loading buffer, which were maintained for 30 minutes at room temperature in a light-shielding state before measurement. The Ca^2+ level change induced by L-glutamate at EC80 concentration was measured for 2 minutes using FLIPR Tetra (MDS Analytical Technologies). The fluorescent Ca^2+ signal values in the presence of the test compounds were normalized to the fluorescent signal elicited by EC80 concentration of L-glutamate as 100% and that elicited by vehicle as 0% to estimate % inhibition of the test compounds. […]

human HDAC6 enzyme = target: T2, human HDAC6 enzyme (Homo sapiens, UniProt Q9UBN7); assay: Fluorescence-based enzyme activity assay; assay type: biochemical; details: substrate with fluorescent peptide of p53 residues 379-382, 30°C for 1 hour
T2 sequence (Q9UBN7 1-1215): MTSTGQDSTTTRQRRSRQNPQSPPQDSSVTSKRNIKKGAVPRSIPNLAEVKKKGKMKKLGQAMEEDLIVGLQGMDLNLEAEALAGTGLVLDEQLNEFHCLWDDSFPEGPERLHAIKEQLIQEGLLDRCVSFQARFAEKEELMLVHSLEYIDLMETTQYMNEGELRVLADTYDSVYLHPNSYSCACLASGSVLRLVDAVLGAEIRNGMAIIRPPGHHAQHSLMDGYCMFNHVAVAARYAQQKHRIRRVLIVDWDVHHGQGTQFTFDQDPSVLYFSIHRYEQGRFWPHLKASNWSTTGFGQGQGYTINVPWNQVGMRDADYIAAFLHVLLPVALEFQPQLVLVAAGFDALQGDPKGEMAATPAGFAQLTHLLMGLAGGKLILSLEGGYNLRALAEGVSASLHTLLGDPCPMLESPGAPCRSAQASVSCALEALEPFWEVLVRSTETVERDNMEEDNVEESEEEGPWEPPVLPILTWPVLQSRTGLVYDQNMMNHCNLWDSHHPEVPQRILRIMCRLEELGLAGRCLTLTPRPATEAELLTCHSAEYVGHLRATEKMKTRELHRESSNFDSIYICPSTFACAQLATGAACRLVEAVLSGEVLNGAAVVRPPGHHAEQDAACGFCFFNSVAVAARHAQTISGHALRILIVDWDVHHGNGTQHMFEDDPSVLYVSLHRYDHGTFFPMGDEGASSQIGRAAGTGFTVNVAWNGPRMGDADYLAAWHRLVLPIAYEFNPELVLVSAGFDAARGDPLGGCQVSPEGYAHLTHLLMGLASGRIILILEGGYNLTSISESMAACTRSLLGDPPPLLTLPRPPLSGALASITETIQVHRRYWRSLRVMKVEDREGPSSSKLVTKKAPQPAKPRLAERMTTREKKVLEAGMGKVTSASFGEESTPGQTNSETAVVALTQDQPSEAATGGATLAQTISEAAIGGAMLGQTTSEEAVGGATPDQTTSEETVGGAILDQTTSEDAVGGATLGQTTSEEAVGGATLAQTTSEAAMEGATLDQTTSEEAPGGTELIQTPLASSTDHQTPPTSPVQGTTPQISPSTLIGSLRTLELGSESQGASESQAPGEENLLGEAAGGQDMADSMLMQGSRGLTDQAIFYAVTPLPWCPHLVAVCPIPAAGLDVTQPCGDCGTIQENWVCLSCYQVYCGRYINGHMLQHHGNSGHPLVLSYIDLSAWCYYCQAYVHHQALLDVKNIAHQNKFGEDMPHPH
Protocol: Experimental Example 1: Fluorescence-based enzyme activity assay
In order to measure the inhibitory effect of the compounds on the activity of histone deacetylase 6 (HDAC6), an enzyme activity assay was performed to evaluate the enzyme activity by reacting the human HDAC6 enzyme with a substrate to which a fluorescent peptide of p53 residues 379-382 was attached. The test compounds were dissolved in 100% DMSO at a concentration of 10 mM to prepare a stock solution. A starting concentration of 30 µM was prepared from the stock solution, followed by 1/3 serial dilutions to prepare the test buffer solution. Trichostatin A (TSA)-which is the reference compound used to confirm the validity of the experiment-was serially diluted by 1/3 with the test buffer solution, starting from the highest concentration of 1 µM. To react the test compounds and TSA prepared in the test buffer with the HDAC6 enzyme, they were dispensed into a 96-well black plate and spin-down of the plate was performed. Then, the reaction was carried out at room temperature for 10 minutes. After 10 minutes, the substrate was dispensed, and the plate was sealed. The reaction was carried out at 30°C for 1 hour under light-blocking conditions. Fluorescence values were measured using a plate reader (wavelength: excitation/emission = 360/460 nm). The fluorescence measurements were normalized to the HDAC6 enzyme-treated group as 100% and the untreated group as 0%, respectively. […]

T1 sequence (P41594 21-1212): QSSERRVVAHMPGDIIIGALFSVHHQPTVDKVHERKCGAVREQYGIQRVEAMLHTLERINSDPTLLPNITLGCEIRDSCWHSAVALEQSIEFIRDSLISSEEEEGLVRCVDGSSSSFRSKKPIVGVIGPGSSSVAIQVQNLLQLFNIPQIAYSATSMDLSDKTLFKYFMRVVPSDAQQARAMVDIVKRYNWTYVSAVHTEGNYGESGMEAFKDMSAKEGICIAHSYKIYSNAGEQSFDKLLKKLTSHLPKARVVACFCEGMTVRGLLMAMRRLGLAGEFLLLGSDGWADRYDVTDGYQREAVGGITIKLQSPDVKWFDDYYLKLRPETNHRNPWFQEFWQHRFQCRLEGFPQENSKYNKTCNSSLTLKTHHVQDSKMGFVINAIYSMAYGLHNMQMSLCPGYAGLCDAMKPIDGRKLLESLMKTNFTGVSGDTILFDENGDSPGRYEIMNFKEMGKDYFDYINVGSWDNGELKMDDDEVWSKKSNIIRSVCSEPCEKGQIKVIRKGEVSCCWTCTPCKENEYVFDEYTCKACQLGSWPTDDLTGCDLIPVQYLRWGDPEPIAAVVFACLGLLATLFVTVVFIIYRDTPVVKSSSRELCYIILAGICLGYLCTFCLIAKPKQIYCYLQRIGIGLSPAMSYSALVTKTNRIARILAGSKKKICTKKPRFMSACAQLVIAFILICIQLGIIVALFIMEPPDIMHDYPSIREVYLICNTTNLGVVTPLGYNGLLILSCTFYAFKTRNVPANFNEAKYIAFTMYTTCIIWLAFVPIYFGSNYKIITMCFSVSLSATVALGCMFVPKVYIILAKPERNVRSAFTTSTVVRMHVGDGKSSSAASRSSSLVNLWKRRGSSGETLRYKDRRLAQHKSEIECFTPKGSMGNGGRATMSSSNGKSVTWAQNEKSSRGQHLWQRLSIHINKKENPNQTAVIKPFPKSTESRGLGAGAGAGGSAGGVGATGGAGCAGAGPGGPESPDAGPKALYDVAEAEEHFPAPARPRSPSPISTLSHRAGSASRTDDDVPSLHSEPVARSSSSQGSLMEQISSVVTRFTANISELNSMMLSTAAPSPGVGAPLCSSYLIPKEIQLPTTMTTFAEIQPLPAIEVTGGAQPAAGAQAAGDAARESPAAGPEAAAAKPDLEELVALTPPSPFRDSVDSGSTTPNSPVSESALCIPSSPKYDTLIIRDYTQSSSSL

Structure (SMILES)	IC50 (Human mGluR5)	IC50 (human HDAC6 enzyme)
O=c1cc(-c2nnc(C(F)(F)F)o2)ccn1CC#Cc1cccc(Cl)c1 [Example 28, 1-(3-(3-chlorophenyl)prop-2-yn-1-yl)-4-(5-(trifluoromethyl)-1,3,4-oxadiazol-2-yl)pyridin-2(1H)-one]	1 to 2 µM	0.5 to 1 µM
O=c1cc(-c2nnc(C(F)F)o2)ccn1CC#Cc1cccc(C(F)F)c1 [Example 26, 4-(5-(difluoromethyl)-1,3,4-oxadiazol-2-yl)-1-(3-(3-(difluoromethyl)phenyl)prop-2-yn-1-yl)pyridin-2(1H)-one]	0.5 to 1 µM	–
Cc1cccc(C#CCn2ccc(-c3nnc(C(F)F)o3)cc2=O)n1 [Example 24, 4-(5-(difluoromethyl)-1,3,4-oxadiazol-2-yl)-1-(3-(6-methylpyridin-2-yl)prop-2-yn-1-yl)pyridin-2(1H)-one]	0.5 to 1 µM	< 0.1 µM
Cc1cc(-c2nnc(C(F)F)o2)cc(=O)n1CC#Cc1cccc(Cl)c1 [Example 45, 1-(3-(3-chlorophenyl)prop-2-yn-1-yl)-4-(5-(difluoromethyl)-1,3,4-oxadiazol-2-yl)-6-methylpyridin-2(1H)-one]	0.5 to 1 µM	0.1 to 0.5 µM
O=c1cc(-c2noc(C(F)F)n2)ccn1CC#Cc1cccc(Cl)c1 [Example 30, 1-(3-(3-chlorophenyl)prop-2-yn-1-yl)-4-(5-(difluoromethyl)-1,2,4-oxadiazol-3-yl)pyridin-2(1H)-one]	0.5 to 1 µM	0.5 to 1 µM
Cc1cccc(C#CCn2ccc(-c3nnc(C(F)F)o3)cc2=O)c1 [Example 18, 4-(5-(difluoromethyl)-1,3,4-oxadiazol-2-yl)-1-(3-(m-tolyl)prop-2-yn-1-yl)pyridin-2(1H)-one]	1 to 2 µM	< 0.1 µM
O=c1cc(-c2nnc(C(F)F)o2)ccn1CC#Cc1ccnc(Cl)c1 [Example 23, 1-(3-(2-chloropyridin-4-yl)prop-2-yn-1-yl)-4-(5-(difluoromethyl)-1,3,4-oxadiazol-2-yl)pyridin-2(1H)-one]	1 to 2 µM	< 0.1 µM
O=c1cc(-c2nnc(C(F)F)o2)ccn1CC#Cc1cccc(Br)c1 [Example 25, 1-(3-(3-bromophenyl)prop-2-yn-1-yl)-4-(5-(difluoromethyl)-1,3,4-oxadiazol-2-yl)pyridin-2(1H)-one]	0.5 to 1 µM	0.1 to 0.5 µM
Cc1ccc(C#CCn2ccc(-c3nnc(C(F)F)o3)cc2=O)cc1 [Example 17, 4-(5-(difluoromethyl)-1,3,4-oxadiazol-2-yl)-1-(3-(p-tolyl)prop-2-yn-1-yl)pyridin-2(1H)-one]	1 to 2 µM	0.1 to 0.5 µM
O=c1cc(-c2nnc(C(F)F)o2)ccn1CC#Cc1cccc(C(F)(F)F)c1 [Example 19, 4-(5-(difluoromethyl)-1,3,4-oxadiazol-2-yl)-1-(3-(3-(trifluoromethyl)phenyl)prop-2-yn-1-yl)pyridin-2(1H)-one]	1 to 2 µM	0.1 to 0.5 µM
O=c1cc(-c2noc(C(F)(F)F)n2)ccn1CC#Cc1cccc(Cl)c1 [Example 7, 1-(3-(3-chlorophenyl)prop-2-yn-1-yl)-4-(5-(trifluoromethyl)-1,2,4-oxadiazol-3-yl)pyridine-2(1H)-one]	1 to 2 µM	0.5 to 1 µM
CCC(C#Cc1cccc(Cl)c1)Oc1cc(-c2nnc(C(F)F)o2)ccn1 (stereo not drawn) [Example 44]	1 to 2 µM	–
N#Cc1cccc(C#CCn2ccc(-c3nnc(C(F)F)o3)cc2=O)c1 [Example 31, 3-(3-(4-(5-(difluoromethyl)-1,3,4-oxadiazol-2-yl)-2-oxopyridin-1(2H)-yl)prop-1-yn-1-yl)benzonitrile]	0.5 to 1 µM	< 0.1 µM
O=c1cc(-c2nnc(C(F)F)o2)ccn1CC#Cc1cccc(Cl)c1 [Example 15, 1-(3-(3-chlorophenyl)prop-2-yn-1-yl)-4-(5-(difluoromethyl)-1,3,4-oxadiazol-2-yl)pyridin-2(1H)-one]	0.5 to 1 µM	< 0.1 µM
O=c1cc(-c2nnc(C(F)F)o2)ccn1CC#Cc1cccc(OC(F)F)c1 [Example 27, 1-(3-(3-(difluoromethoxy)phenyl)prop-2-yn-1-yl)-4-(5-(difluoromethyl)-1,3,4-oxadiazol-2-yl)pyridin-2(1H)-one]	1 to 2 µM	< 0.1 µM
O=c1cc(-c2nnc(C(F)F)o2)ccn1CC#Cc1cc(Cl)ccc1F [Example 36, 1-(3-(5-chloro-2-fluorophenyl)prop-2-yn-1-yl)-4-(5-(difluoromethyl)-1,3,4-oxadiazol-2-yl)pyridin-2(1H)-one]	1 to 2 µM	0.1 to 0.5 µM
O=c1cc(-c2nnc(C(F)F)o2)c(Br)cn1CC#Cc1cccc(Cl)c1 [Example 46, 5-bromo-1-(3-(3-chlorophenyl)prop-2-yn-1-yl)-4-(5-(difluoromethyl)-1,3,4-oxadiazol-2-yl)pyridin-2(1H)-one]	0.5 to 1 µM	–
O=c1cc(-c2nnc(C(F)F)o2)ccn1CC#Cc1cccc(OC(F)(F)F)c1 [Example 20, 4-(5-(difluoromethyl)-1,3,4-oxadiazol-2-yl)-1-(3-(3-(trifluoromethoxy)phenyl)prop-2-yn-1-yl)pyridin-2(1H)-one]	1 to 2 µM	0.1 to 0.5 µM
